Entries after “also recorded” stand apart in the source; their conditions may differ.
Columns and labels:
[1] = system: HaCaT cells; assay: Cell proliferation/viability by Trypan Blue exclusion method; format: cell-based, human; settings: 48 h; for antiproliferative activity compared to RSV or CRC-treated cells: 5–100 µM
Method: (§1) The adherent HaCaT cell line was obtained from Cytion, Eppelheim, Germany. The HaCaT cell line was routinely grown in Dulbecco’s Modified Eagle Medium supplemented with 10% (v/v) fetal bovine serum (atmosphere of 95% air and 5% CO2 at 37 °C), obtained from Sigma-Aldrich Co., St. Louis, MO, USA. No antibiotics were used throughout the experiments. Cells were harvested with trypsin/EDTA solution (Sigma-Aldrich Co.) after reaching >70% confluence, diluted to the required density, and seeded in multiwell plates (Nunc, Roskilde, Denmark), depending on the experiments performed.
(§2) The cytotoxicity endpoints were determined by MTT (3-(4,5-dimethyl-2-thiazolyl)-2,5-diphenyl-2H-tetrazolium bromide) assay and Trypan blue method. For the MTT assay, cells were seeded in 96-well transparent flat-bottomed polystyrene plates at an initial concentration of 2.5 × 10^5 cells mL^−1 (100 μL/well) in growth medium supplemented with RSV, RF, CRC, and CF at concentrations of 5–100 μM. Concentrations were chosen based on our previously conducted research—reported cytotoxicity thresholds in HaCaT and other cell lines. RF and CF were synthesized in the Laboratory for Organic Chemistry at the University of Zagreb Faculty of Food Technology and Biotechnology, Zagreb, Croatia, while RSV and CRC were purchased from Sigma-Aldrich. After 48 h of incubation at 37 °C, cell viability was determined using the MTT assay. The absorbance was measured at 540 nm (Cary Eclipse spectrofluorimeter, Varian, Palo Alto, CA, USA). For the Trypan blue method, the cells were seeded in 6-well plates at an initial concentration of 2 × 10^4 cells mL^−1 (4 mL/well). After overnight incubation at 37 °C, the cells were treated with RSV, RF, CRC, and CF at different concentrations (5–100 μM). Cell viability was determined 48 h after treatment using the Trypan blue method. The stock solution of RSV was prepared in EtOH, while CRC and ferrocenyl analogues require DMSO due to higher lipophilicity. All stock solutions were stored at −20 °C until use. […] Cell viability is expressed as the percentage of treated cells compared to control cells. For each concentration tested, 3–15 independent biological samples were analyzed.

[2] = system: HaCaT cells; assay: Apoptosis/necrosis by Muse Annexin V & Dead Cell Kit (flow cytometry); format: cell-based, human; settings: 48 h
Method: (§3) The Muse™ Annexin V & Dead Cell Kit (Cat. No. MCH100105, Millipore, Merck Darmstadt, Germany) was used to determine the percentage of HaCaT cells in four different cell populations (live, early apoptotic, late apoptotic, and dead) after treatment of cells with RSV, RF, CRC, and CF (5–100 μM; for 48 h) according to the manufacturer’s protocol. A detailed protocol was elucidated in Murati et al.. The cells were analyzed using the Muse™ Cell Analyzer (Luminex, Austin, TX, USA). For each concentration tested, 3–7 independent biological samples were analyzed.

[3] = system: HaCaT cells; assay: Autophagy by Muse Autophagy LC3-antibody based kit (flow cytometry); format: cell-based, human; settings: 48 h; for order of the autophagy induction ratio (from highest to lowest): 100 µM
Method: The Muse™ Autophagy LC3-antibody based kit (Cat. No. MCH200109, Millipore) was used to determine the induction of autophagy in HaCaT cells after treatment with RSV, RF, CRC, and CF (5–100 μM) with some minor protocol modifications. The experimental procedure for both analyses was set up as for cell viability determination by the Trypan blue method. Autophagy induction data were read based on the fluorescence intensity of the sample (using Muse™ Cell Analyzer). For each concentration tested, 3–8 independent biological samples were analyzed.

[4] = system: DNA; set-up: method as in PMID 21388716; settings: cited from earlier work
[5] = system: DNA; set-up: method as in PMID 21388716; settings: cited from earlier work; remark: listed apart in the source
[6] = system: HaCaT cells; assay: Cell viability by MTT assay; format: cell-based, human; settings: 48 h; for IC20 / IC50 / IC80: MTT method
Method: as §1, §2

[7] = system: HaCaT cells; assay: Intracellular ROS (DCFDA), UV-C-induced or endogenous; format: cell-based, human
Method: (§4) Two approaches were used for intracellular ROS induction. The first approach involved pretreatment of HaCaT cells with RSV, RF, CRC, and CF and, after overnight incubation, treatment with 50 μM tBHP (tert-butyl hydroperoxide). The second approach included pretreatment of the cells with CRC and CF, and after overnight incubation, exposure of the cells to UV (ultraviolet)-C light (15 W; 55 V; 254 nm; PURITEC HNS Linear Lamps, HNS 15 W G13, Osram GmbH, Munich, Germany) for 3 h. In brief, HaCaT cells were seeded at a concentration of 2.5 × 10^5 cells mL^−1 in black 96-well plates (100 µL/well) in growth medium and supplemented with RSV, RF, CRC, and CF at concentrations 2.5–50 μM. The DCFDA/H2DCFDA (2′,7′-dichlorofluorescin diacetate/2′,7′-dichlorodihydrofluorescein diacetate) assay was performed according to the manufacturer’s protocol with minor modifications (Cellular ROS Assay Kit Cat. No. ab113851, Abcam, Cambridge, UK). The intracellular ROS level was determined by measuring the fluorescence intensity (λex/em = 485/535 nm; Cary Eclipse spectrofluorimeter). Cells treated with the same volume of DMSO or EtOH in which RSV, RF, CRC, and CF were dissolved, and cells treated with 50 µM tBHP served as controls. In UV experiments, cells treated with the solvent (DMSO) and exposed to UVR (ultraviolet radiation) were considered as control samples. For each concentration tested, 3–8 independent biological samples were analyzed.

[8] = system: HaCaT cells; assay: Intracellular ROS (DCFDA) induced by tert-butyl hydroperoxide; format: cell-based, human; settings: then 50 µM tBHP; for doses with statistically significant (p < 0.05) lowering of ROS levels: HaCaT pretreated overnight; for effect on ROS induced by tBHP: HaCaT pretreated with 2.5–50 µM
Method: as §4

[9] = Apoptosis/necrosis by Muse Annexin V & Dead Cell Kit (flow cytometry); format: cell-based, human; settings: human, HaCaT cells, highest concentration (100 µM), read-out: viability (live cells)
Method: as §3

[10] = Homo sapiens, HaCaT, Trypan Blue method, from dose–response curves
[11] = HaCaT, Trypan Blue method, from dose–response curves
[12] = value outside the range of the tested doses (>100 µM)
[13] = Homo sapiens, from dose–response curves

## Oc1ccc(/C=C/c2cc(O)cc(O)c2)cc1 [RSV, 3,4′,5-trihydroxy-trans-stilbene]
[1]; [10]
  IC20: 3.22 µM
  IC50: 40.3 µM
[2]; 100 µM
  level of cell death through necrotic or apoptotic pathways: ≤ 11%
[2]; 100 µM, p < 0.05
  cell survival (proportion of viable cells in the culture) vs control: significantly lower
[3]; 20 µM, p < 0.05
  effect on autophagy induction: stimulating
[3]; 100 µM (highest dose)
  effect on autophagy induction: reducing
[3]
  order of the autophagy induction ratio (from highest to lowest): CRC > CF > RF ≈ RSV

## COc1cc(C=CC(=O)C=C[c-]2cccc2)ccc1O.[Fe+2].c1cc[cH-]c1 [FDZ, 1-(p-hydroxy-m-methoxyphenyl)-5-ferrocenyl-penta-1,4-dien-3-one]
[4]
  inhibition of AAPH-induced oxidation of DNA: in higher extent than CRC, feruloylacetone, and dehydrozingerone
[5]
  effect on Cu2+/GSH-induced oxidation of DNA: protective effects

## COc1cc(/C=C/C(=O)CC(=O)[c-]2cccc2)ccc1O.[Fe+2].c1cc[cH-]c1 [CF, (E)-5-(4-hydroxy-3-methoxyphenyl)-1-ferrocenylpent-4-ene-1,3-dione]
[1]; Trypan Blue
  antiproliferative activity compared to RSV or CRC-treated cells: significantly lower antiproliferative activity
[1]; [11]
  IC20: 75.4 µM
[6]; [12]
  IC20: 121 µM
  IC50: 208 µM
  IC80: 273 µM
[7]; HaCaT pretreated with 2.5–50 µM, UV-C 3 h
  effect on UV-induced ROS: did not exhibit significant antioxidant activity
[8]
  doses with statistically significant (p < 0.05) lowering of ROS levels: ≥ 5 µM
  effect on ROS induced by tBHP: most pronounced effect; also recorded: significantly reduced the ROS induced by tBHP
[2]; 5–100 µM
  effect on cell death / viability by flow cytometry: induced cell death significantly less compared to all compounds tested; also recorded: almost no effect on cell viability
[3]
  order of the autophagy induction ratio (from highest to lowest): CRC > CF > RF ≈ RSV
[3]; 5–100 µM
  effect on autophagy induction: reduced autophagic degradation activity; also recorded: decrease in the autophagy induction ratio

## COc1cc(/C=C/C(=O)CC(=O)/C=C/c2ccc(O)c(OC)c2)ccc1O [CRC, (1E,6E)-1,7-bis(4-hydroxy-3-methoxyphenyl)-1,6-heptadiene-3,5-dione]
[1]; HaCaT, Trypan Blue
  doses at which cell viability was almost completely impaired: ≥ 50 µM
[1]; [10]
  IC50: 11 µM
  IC80: 26.4 µM
[6]; MTT
  doses at which cell viability was almost completely impaired: ≥ 50 µM
[6]; MTT, vs solvent control
  concentrations with statistically significant (p < 0.05) cytotoxicity: ≥ 20 µM
[6]; [13]
  IC20: 7.28 µM
  IC50: 18.9 µM
  IC80: 34 µM
[7]; HaCaT pretreated overnight, UV-C 3 h
  doses with protective effect against UV-induced ROS: ≥ 20 µM
[7]; HaCaT, without UV exposure
  doses significantly (p < 0.05) reducing endogenous ROS production: ≥ 20 µM
[8]
  doses with statistically significant (p < 0.05) lowering of ROS levels: ≥ 5 µM
  effect on ROS induced by tBHP: most pronounced effect
[9]
  viability at 48 h, 100 µM: 1.08%
[2]; 100 µM
  proportion of cells in early and late apoptosis: 88.40%
[2]; highest concentration (100 µM)
  proportion of cells in late apoptosis: 88.34%
  proportion of cells in necrosis: 10.52%
[3]; 100 µM (highest dose)
  effect on autophagy induction: highest autophagy induction ratio; also recorded: most prominent autophagy induction ratio
[3]
  order of the autophagy induction ratio (from highest to lowest): CRC > CF > RF ≈ RSV

## COc1cc(C=CC(=O)C(=C[c-]2cccc2)C(=O)C=Cc2ccc(O)c(OC)c2)ccc1O.[Fe+2].c1cc[cH-]c1 [FCU, 1,7-bis(p-hydroxy-m-methoxyphenyl)-4-ferrocenylidene-hepta-1,6-diene-3,5-dione]
[4]
  inhibition of AAPH-induced oxidation of DNA: in higher extent than CRC, feruloylacetone, and dehydrozingerone
[5]
  effect on Cu2+/GSH-induced oxidation of DNA: protective effects

## O=C(CCC[c-]1cccc1)Oc1ccc(/C=C/c2cc(OC(=O)CCC[c-]3cccc3)cc(OC(=O)CCC[c-]3cccc3)c2)cc1.[Fe+2].[Fe+2].[Fe+2].c1cc[cH-]c1.c1cc[cH-]c1.c1cc[cH-]c1 [RF, trans-3,5,4′-tri(4-ferrocenylbutanoyloxy)-stilbene]
[1]; Trypan Blue
  antiproliferative activity compared to RSV or CRC-treated cells: significantly lower antiproliferative activity
[1]; [11]
  IC20: 10.8 µM
[8]
  effect on ROS induced by tBHP: significantly reduced the ROS induced by tBHP
[2]
  doses after which the majority of cells remained in the early apoptosis fraction: ≥ 5 µM
[3]; 5 µM
  effect on autophagy induction: slightly induced autophagy
[3]; 100 µM (highest dose)
  effect on autophagy induction: lower autophagy-related LC3 protein
[3]
  order of the autophagy induction ratio (from highest to lowest): CRC > CF > RF ≈ RSV

## COc1cc(C=CC(O)=CC(=O)C=C[c-]2cccc2)ccc1O.[Fe+2].c1cc[cH-]c1 [FFT, 1-(p-hydroxy-m-methoxyphenyl)-3-hydroxy-7-ferrocenyl-hepta-1,4,6-trien-5-one]
[4]
  inhibition of AAPH-induced oxidation of DNA: in higher extent than CRC, feruloylacetone, and dehydrozingerone
[5]
  effect on Cu2+/GSH-induced oxidation of DNA: protective effects
